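Grown in 96-well plates, cells were treated for 48 hours with each compound at five concentrations. Insufficient inhibition: endpoint recorded as highest concentration tested. GI50 = concentration required for 50% inhibition of growth.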 Active and inactive are the calls of the source. Cut-off read from the data, not from the text of the source: active = GI50 up to about 1.1 µM and inactive = higher.
Assays:
Assay in all cases: NCI-60 cell line screen, 48 h
A498 = test system: A498
A549 = test system: A549
BT-549 = test system: BT-549
CCRF-CEM = test system: CCRF-CEM
HCT-116 = test system: HCT-116
HOP-62 = test system: HOP-62
IGROV-1 = test system: IGROV-1
LOX IMVI = test system: LOX IMVI
MDA-N = test system: MDA-N
NCI-H23 = test system: NCI-H23
NCI-H522 = test system: NCI-H522
OVCAR-8 = test system: OVCAR-8
SK-MEL-28 = test system: SK-MEL-28
SN12C = test system: SN12C
SNB-19 = test system: SNB-19
SNB-75 = test system: SNB-75
TK-10 = test system: TK-10
U-251 = test system: U-251
UO-31 = test system: UO-31
NCI/ADR-RES = test system: NCI/ADR-RES

Measured: GI50

C=C1C(=O)O[C@@H]2C[C@@H](C)[C@@H]3C=CC(=O)[C@@]3(C)[C@@H](OC(=O)CC(=O)O[C@H]3[C@@H]4C(=C)C(=O)O[C@@H]4C[C@@H](C)[C@@H]4C=CC(=O)[C@]43C)[C@H]12
active: A498 0.213 µM | A549 0.431 µM | BT-549 0.0386 µM | CCRF-CEM < 0.01 µM | HCT-116 0.0143 µM | HOP-62 0.44 µM | IGROV-1 0.173 µM | LOX IMVI < 0.0335 µM | MDA-N 0.0755 µM | NCI-H23 0.0345 µM | NCI-H522 < 0.01 µM | OVCAR-8 0.0299 µM | SK-MEL-28 0.0398 µM | SN12C 0.0348 µM | SNB-19 0.548 µM | SNB-75 0.136 µM | TK-10 0.117 µM | U-251 0.0356 µM | UO-31 0.137 µM

Cc1ccc(S(=O)(=O)NC2=NS(=O)(=O)c3cc(C)c(Cl)cc3S2)cc1
inactive: A498 > 100 µM | A549 > 100 µM | BT-549 > 100 µM | HCT-116 88.3 µM | HOP-62 > 100 µM | IGROV-1 > 100 µM | LOX IMVI 62.2 µM | NCI-H23 > 100 µM | NCI-H522 42.3 µM | NCI/ADR-RES > 100 µM | OVCAR-8 > 100 µM | SK-MEL-28 > 100 µM | SN12C > 100 µM | SNB-19 75 µM | SNB-75 > 100 µM | TK-10 > 100 µM | U-251 > 100 µM | UO-31 > 100 µM

C[N+]1=C(c2cccnc2/C=N/O)OCC1(C)C
inactive: A498 > 100 µM | A549 > 100 µM | CCRF-CEM > 100 µM | HCT-116 > 100 µM | HOP-62 > 100 µM | IGROV-1 > 100 µM | LOX IMVI > 100 µM | NCI-H23 > 100 µM | NCI-H522 > 100 µM | OVCAR-8 > 100 µM | SK-MEL-28 > 100 µM | SN12C > 100 µM | SNB-19 > 100 µM | SNB-75 > 100 µM | TK-10 > 100 µM | U-251 > 100 µM | UO-31 > 100 µM

C=CCC(NCc1ccccc1)[C@H](OCc1ccccc1)[C@@H]1COC(C)(C)O1 (stereo partly specified)
inactive: A498 45.6 µM | A549 39 µM | CCRF-CEM 28.1 µM | HCT-116 23.7 µM | HOP-62 55.1 µM | IGROV-1 35.8 µM | LOX IMVI 26 µM | MDA-N 31.8 µM | NCI-H23 28.3 µM | NCI/ADR-RES 46.8 µM | OVCAR-8 35.2 µM | SK-MEL-28 47.1 µM | SN12C 43.4 µM | SNB-19 72.8 µM | SNB-75 49 µM | TK-10 23.8 µM | U-251 37.6 µM | UO-31 22.9 µM

CC1=NN(c2nc(N)nc(/C(C#N)=C/c3ccncc3)n2)C(C)(C)C1
inactive: A498 60.3 µM | BT-549 > 100 µM | CCRF-CEM 49.3 µM | HCT-116 > 100 µM | HOP-62 > 100 µM | IGROV-1 > 100 µM | LOX IMVI > 100 µM | NCI-H23 > 100 µM | NCI/ADR-RES > 100 µM | OVCAR-8 > 100 µM | SK-MEL-28 > 100 µM | SNB-19 > 100 µM | SNB-75 > 100 µM | TK-10 > 100 µM | U-251 > 100 µM | UO-31 > 100 µM

O=C(Nc1sccc1S(=O)(=O)c1ccc(Cl)cc1)c1ccc(Cl)cc1Cl
inactive: A498 > 100 µM | A549 > 95.7 µM | BT-549 > 100 µM | CCRF-CEM > 100 µM | HCT-116 > 100 µM | HOP-62 > 100 µM | IGROV-1 > 100 µM | LOX IMVI > 74.6 µM | NCI-H23 > 81.3 µM | NCI-H522 34.1 µM | NCI/ADR-RES > 100 µM | OVCAR-8 > 100 µM | SK-MEL-28 > 100 µM | SN12C > 100 µM | SNB-19 > 100 µM | SNB-75 > 100 µM | TK-10 > 100 µM | U-251 > 78.7 µM | UO-31 > 100 µM

CCOC(=O)/C(=C\NC(=S)Nc1ccc(Cl)c(Cl)c1)C(=O)c1ccccc1
inactive: A498 3.94 µM | A549 43.1 µM | CCRF-CEM 31.1 µM | HCT-116 46.5 µM | HOP-62 40.6 µM | IGROV-1 33 µM | LOX IMVI 69.7 µM | MDA-N 27.2 µM | NCI-H23 8.61 µM | NCI-H522 6.3 µM | NCI/ADR-RES 33 µM | OVCAR-8 47.6 µM | SK-MEL-28 53.2 µM | SN12C 46.5 µM | SNB-75 6.79 µM | U-251 37.2 µM | UO-31 1.52 µM

CN(C)/C=C1\CCc2ccc([N+](=O)[O-])cc2C1=O
inactive: A498 > 100 µM | A549 > 100 µM | CCRF-CEM 19.8 µM | HCT-116 17.9 µM | HOP-62 > 100 µM | IGROV-1 > 100 µM | LOX IMVI 19.6 µM | MDA-N 19.2 µM | NCI-H23 53.6 µM | NCI-H522 > 100 µM | NCI/ADR-RES 75 µM | OVCAR-8 45.7 µM | SK-MEL-28 > 100 µM | SN12C 18.3 µM | SNB-19 > 100 µM | SNB-75 > 100 µM | TK-10 > 100 µM | U-251 75.7 µM | UO-31 > 100 µM

NC(=S)N/N=C1\CCCC\C1=C/c1ccccc1
inactive: A498 > 100 µM | A549 > 100 µM | CCRF-CEM 30.5 µM | HCT-116 58.2 µM | HOP-62 > 100 µM | IGROV-1 25.2 µM | LOX IMVI > 100 µM | NCI-H23 > 100 µM | NCI-H522 18.7 µM | OVCAR-8 > 100 µM | SK-MEL-28 > 100 µM | SN12C 39.5 µM | SNB-19 > 100 µM | SNB-75 30.5 µM | TK-10 39.9 µM | U-251 40.5 µM | UO-31 32.5 µM

C=CC(=C)CCC(Br)C(C)(C)Cl (stereo unspecified)
inactive: A549 > 100 µM | BT-549 > 100 µM | CCRF-CEM 87.5 µM | HCT-116 > 100 µM | HOP-62 > 100 µM | IGROV-1 > 100 µM | MDA-N > 100 µM | NCI-H23 > 100 µM | NCI-H522 24.3 µM | NCI/ADR-RES > 100 µM | OVCAR-8 > 100 µM | SK-MEL-28 > 100 µM | SN12C > 100 µM | SNB-19 > 100 µM | SNB-75 > 100 µM | TK-10 > 100 µM | U-251 > 100 µM | UO-31 > 100 µM

O=C(c1ccc(Cl)cc1Cl)C1[C@H]2C(=O)N(c3ccc(Cc4ccc(N5C(=O)[C@@H]6ON(c7ccccc7)C(C(=O)c7ccc(Cl)cc7Cl)[C@@H]6C5=O)cc4)cc3)C(=O)[C@H]2ON1c1ccccc1 (stereo partly specified)
inactive: A498 > 50 µM | A549 > 50 µM | CCRF-CEM > 50 µM | HCT-116 > 50 µM | HOP-62 > 50 µM | IGROV-1 > 50 µM | LOX IMVI > 50 µM | NCI-H23 > 50 µM | NCI-H522 > 50 µM | OVCAR-8 > 50 µM | SK-MEL-28 > 50 µM | SN12C > 50 µM | SNB-19 > 50 µM | SNB-75 > 50 µM | TK-10 > 50 µM | U-251 > 50 µM | UO-31 > 50 µM

CC(=O)NC(C=O)C(O[C@H](C)C(=O)NC(C)C(=O)NC(CCC(N)=O)C(=O)OCc1ccccc1)C(O)C(O)COC(=O)CCNc1c2ccccc2nc2cccc([N+](=O)[O-])c12 (stereo partly specified)
inactive: A498 > 100 µM | A549 2.23 µM | CCRF-CEM 1.94 µM | HCT-116 1.37 µM | HOP-62 2.95 µM | IGROV-1 > 100 µM | LOX IMVI 14.6 µM | NCI-H23 2.47 µM | NCI-H522 1.62 µM | OVCAR-8 4.89 µM | SK-MEL-28 3.19 µM | SN12C 2.02 µM | SNB-19 4.49 µM | SNB-75 3.97 µM | TK-10 13.6 µM | U-251 2.56 µM | UO-31 16.9 µM

CC(=N)OC1CC2CCC1(C)C2(C)C (stereo unspecified)
inactive: A498 > 100 µM | A549 > 100 µM | BT-549 > 100 µM | CCRF-CEM > 100 µM | HCT-116 > 100 µM | HOP-62 > 100 µM | IGROV-1 > 100 µM | LOX IMVI > 100 µM | MDA-N > 100 µM | NCI-H23 > 100 µM | NCI-H522 > 100 µM | OVCAR-8 > 100 µM | SK-MEL-28 > 100 µM | SN12C > 100 µM | SNB-75 > 100 µM | TK-10 > 100 µM | U-251 > 100 µM | UO-31 > 100 µM

CC1CC[C@@]23CCC4(C)[C@@](C=CC5[C@@]6(C)CCC(=O)C(C)(C)C6CC[C@]54C)(OC2=O)[C@@H]3[C@H]1C (stereo partly specified)
inactive: A498 20.6 µM | A549 6.93 µM | CCRF-CEM 5.35 µM | HCT-116 6.68 µM | HOP-62 16.9 µM | IGROV-1 21.1 µM | LOX IMVI 13.8 µM | NCI-H23 11.9 µM | NCI-H522 11 µM | OVCAR-8 18.6 µM | SK-MEL-28 20.4 µM | SN12C 20.2 µM | SNB-19 29.8 µM | SNB-75 23.6 µM | TK-10 22.4 µM | U-251 17.3 µM | UO-31 8.02 µM

Sc1ncnc2nc[nH]c12 [MERCAPTOPURINE ANHYDROUS]
inactive: A498 58.7 µM | A549 30.1 µM | CCRF-CEM 1.26 µM | HCT-116 2.37 µM | HOP-62 1.75 µM | IGROV-1 9.48 µM | MDA-N 1.78 µM | NCI-H23 3.89 µM | NCI-H522 1.62 µM | NCI/ADR-RES 3.56 µM | OVCAR-8 2.54 µM | SK-MEL-28 372 µM | SN12C 23.8 µM | SNB-19 128 µM | SNB-75 8.75 µM | TK-10 1.94 µM | U-251 13.7 µM | UO-31 6.85 µM
active: LOX IMVI 0.383 µM

Source: ChEMBL document CHEMBL1201862, “PubChem BioAssay data set” (2004)
